Test results taken from ChEMBL document CHEMBL1759859, “Sargachromanols as inhibitors of Na+/K+ ATPase and isocitrate lyase” (Bioorg Med Chem Lett, 2011).
≈ marks a conversion by molar mass, not a printed value. Calls of active or inactive are those of the source. The calls are words filed in the database; no cut-off is given here.

What was measured:
Candida albicans = assay: Antifungal activity against Candida albicans ATCC 10231 at 100 ug/ml after 2 weeks; type: functional, organism-based
Aspergillus fumigatus = assay: Antifungal activity against Aspergillus fumigatus HIC 6094 at 100 ug/ml after 2 weeks; type: functional, organism-based
Trichophyton rubrum = assay: Antifungal activity against Trichophyton rubrum IFO 9185 at 100 ug/ml after 2 weeks; type: functional, organism-based
[1] = system: Trichophyton mentagrophytes; assay: Antifungal activity against Trichophyton mentagrophytes IFO 40996 at 100 ug/ml after 2 weeks; type: functional, organism-based
Bacillus subtilis = assay: Antibacterial activity against Bacillus subtilis ATCC 6633 after 24 hrs by broth dilution method; type: functional; conditions: ATCC 6633, 24 h
Micrococcus luteus = assay: Antibacterial activity against Micrococcus luteus IFC 12708 after 24 hrs by broth dilution method; type: functional; conditions: IFC 12708, 24 h
Proteus vulgaris = assay: Antibacterial activity against Proteus vulgaris ATCC 3851 after 24 hrs by broth dilution method; type: functional; conditions: ATCC 3851, 24 h
Salmonella typhimurium = assay: Antibacterial activity against Salmonella Typhimurium ATCC 14028 after 24 hrs by broth dilution method; type: functional, Salmonella enterica subsp. enterica serovar Typhimurium; conditions: Salmonella enterica, ATCC 14028, 24 h
[2] = Inhibition of porcine cerebral cortex Na+/K+ ATPase by spectrophotometry; type: tissue-based, Sus scrofa
Isocitrate lyase = Isocitrate lyase (Candida albicans, UniProt Q9P8Q7); assay: Inhibition of Candida albicans ICL assessed as formation of glyoxylate phenylhydrazone by spectrophotometry
Chain of Isocitrate lyase (Q9P8Q7 whole entry): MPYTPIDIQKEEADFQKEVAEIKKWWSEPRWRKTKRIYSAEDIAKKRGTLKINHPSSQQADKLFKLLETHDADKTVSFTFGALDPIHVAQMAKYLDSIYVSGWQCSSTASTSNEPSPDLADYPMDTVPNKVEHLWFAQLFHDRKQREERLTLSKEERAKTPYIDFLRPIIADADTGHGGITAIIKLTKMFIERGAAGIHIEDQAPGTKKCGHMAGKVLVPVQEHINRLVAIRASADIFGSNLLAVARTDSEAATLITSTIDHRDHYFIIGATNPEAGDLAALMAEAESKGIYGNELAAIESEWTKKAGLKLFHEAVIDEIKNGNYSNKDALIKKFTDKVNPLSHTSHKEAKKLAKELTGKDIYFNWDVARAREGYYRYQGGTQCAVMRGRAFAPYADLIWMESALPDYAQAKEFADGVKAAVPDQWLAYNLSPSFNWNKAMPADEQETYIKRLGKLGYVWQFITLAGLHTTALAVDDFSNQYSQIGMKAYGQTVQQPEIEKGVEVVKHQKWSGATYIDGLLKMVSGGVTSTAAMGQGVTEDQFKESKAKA

For `O=C(O)CC[N+](=O)[O-]`, the inhibition (Candida albicans) was “inactive”, the inhibition (Aspergillus fumigatus) was “inactive” and the inhibition (Trichophyton rubrum) was “inactive”. For the same molecule, the inhibition [1] was “inactive”.
For `CC1(C)S[C@@H]2[C@H](NC(=O)[C@H](N)c3ccccc3)C(=O)N2[C@H]1C(=O)O` [AMPICILLIN], the MIC (Bacillus subtilis) was 0.78 mg/L (≈ 2.23 µM), the MIC (Micrococcus luteus) was 0.78 mg/L (≈ 2.23 µM) and the MIC (Proteus vulgaris) was 0.78 mg/L (≈ 2.23 µM). The inhibition (Candida albicans) was “inactive”, the inhibition (Aspergillus fumigatus) was “inactive” and the MIC (Salmonella typhimurium) was 0.78 mg/L (≈ 2.23 µM). For the same molecule, the inhibition (Trichophyton rubrum) was “inactive” and the inhibition [1] was “inactive”.
In the case of `C[C@@H]1O[C@@H](O[C@H]2C[C@@H](O)[C@]3(CO)[C@H]4[C@H](O)C[C@]5(C)[C@@H](C6=CC(=O)OC6)CC[C@]5(O)[C@@H]4CC[C@]3(O)C2)[C@H](O)[C@H](O)[C@H]1O` [OUABAIN], the IC50 [2] is reported as 4.6 µM, the inhibition (Candida albicans) is reported as “inactive” and the inhibition (Aspergillus fumigatus) is reported as “inactive”. The inhibition (Trichophyton rubrum) was “inactive” and the inhibition [1] was “inactive”.
With `CC(C)=C[C@@H](O)[C@@H](O)/C(C)=C/CC/C(C)=C/CC[C@]1(C)CCc2cc(O)cc(C)c2O1` [SARGACHROMANO D] the IC50 (Isocitrate lyase) was > 467 µM.
For `CC(C)=C/C(C=O)=C(\C)CCC/C(C)=C/CC[C@]1(C)CCc2cc(O)cc(C)c2O1` [SARGACHROMANO N], the IC50 (Isocitrate lyase) was > 487 µM.
Molecule `C/C(C=O)=C\CC/C(C)=C/CC[C@]1(C)CCc2cc(O)cc(C)c2O1` [SARGACHROMANOL A] has an IC50 (Isocitrate lyase) of 185 µM.
For `C/C(=C\CC/C(C)=C/CC[C@]1(C)CCc2cc(O)cc(C)c2O1)CO` [SARGACHROMANOL B], the IC50 (Isocitrate lyase) was > 581 µM.
With `CC(C)=CC[C@@H](O)/C(C)=C/CC/C(C)=C/CC[C@]1(C)CCc2cc(O)cc(C)c2O1` [SARGACHROMANOL C] the IC50 (Isocitrate lyase) was > 485 µM.
For `CC(C)=C[C@H](O)[C@@H](O)/C(C)=C/CC/C(C)=C/CC[C@]1(C)CCc2cc(O)cc(C)c2O1` [SARGACHROMANOL E], the IC50 (Isocitrate lyase) was > 467 µM.
In the case of `COC(/C(C)=C/CC/C(C)=C/CC[C@]1(C)CCc2cc(O)cc(C)c2O1)[C@H](O)C=C(C)C` (stereo partly drawn) [SARGACHROMANOL F], the IC50 (Isocitrate lyase) is reported as > 452 µM.
For `CC(C)=C[C@@H](O)C(=O)/C(C)=C/CC/C(C)=C/CC[C@]1(C)CCc2cc(O)cc(C)c2O1` [SARGACHROMANOL G], the IC50 (Isocitrate lyase) was > 469 µM.
In the case of `C/C(=C\CC[C@]1(C)CCc2cc(O)cc(C)c2O1)C/C=C\C(C)C(=O)[C@H](O)CC(C)C` (stereo partly drawn) [SARGACHROMANOL H], the IC50 (Isocitrate lyase) is reported as > 467 µM.
With `CC(C)=C[C@@H](O)C(=O)C(C)CCC/C(C)=C/CC[C@]1(C)CCc2cc(O)cc(C)c2O1` (stereo partly drawn) [SARGACHROMANOL I] the IC50 (Isocitrate lyase) was > 467 µM.
With `C/C(=C\CC[C@]1(C)CCc2cc(O)cc(C)c2O1)CCCC(C)C(=O)[C@@H](O)CC(C)C` (stereo partly drawn) [SARGACHROMANOL J] the IC50 (Isocitrate lyase) was > 464 µM.
For `CC(C)=CC(=O)[C@@H](O)/C(C)=C/CC/C(C)=C/CC[C@]1(C)CCc2cc(O)cc(C)c2O1` [SARGACHROMANOL K], the IC50 (Isocitrate lyase) was > 469 µM.
In the case of `CC(C)=CC(CO)/C(C)=C/CC/C(C)=C/CC[C@]1(C)CCc2cc(O)cc(C)c2O1` (stereo partly drawn) [SARGACHROMANOL L], the IC50 (Isocitrate lyase) is reported as 117 µM.
With `CC(C)=C/C(C=O)=C(/C)CCC/C(C)=C/CC[C@]1(C)CCc2cc(O)cc(C)c2O1` [SARGACHROMANOL M] the IC50 (Isocitrate lyase) was 173 µM.
With `CC(C)=CC(C(=O)O)/C(C)=C/CC/C(C)=C/CC[C@]1(C)CCc2cc(O)cc(C)c2O1` (stereo partly drawn) [SARGACHROMANOL O] the IC50 (Isocitrate lyase) was > 469 µM.
In the case of `CC(C)=C[C@@H]1C(=O)C(C)=C[C@H]1C/C(C)=C/CC[C@]1(C)CCc2cc(O)cc(C)c2O1` [SARGACHROMANOL P], the IC50 (Isocitrate lyase) is reported as 149 µM.
